# According to ChEMBL document CHEMBL5385861, “Development of novel hydrazidoarylaminopyrimidine-based BTK/FLT3 dual inhibitors with potent in vivo anti-hematological malignancies effects” (Eur J Med Chem, 2023):
# What was measured:
# [1] = molecular target: Receptor-type tyrosine-protein kinase FLT3 (Homo sapiens, UniProt P36888); experiment: Inhibition of FLT3 (unknown origin) incubated for 40 mins by radiometric kinase assay
# [2] = molecular target: Serine/threonine-protein kinase B-raf (Homo sapiens) (UniProt P15056); experiment: Inhibition of B-Raf (unknown origin) at 0.2 uM incubated for 40 mins by radiometric kinase assay relative to control
# [3] = molecular target: Calcium/calmodulin-dependent protein kinase kinase 2 (Homo sapiens) (UniProt Q96RR4); experiment: Inhibition of CaMKK2 (unknown origin) at 0.2 uM incubated for 40 mins by radiometric kinase assay relative to control
# Sequence of Calcium/calmodulin-dependent protein kinase kinase 2 (Homo sapiens) (Q96RR4 2-588 limits assumed): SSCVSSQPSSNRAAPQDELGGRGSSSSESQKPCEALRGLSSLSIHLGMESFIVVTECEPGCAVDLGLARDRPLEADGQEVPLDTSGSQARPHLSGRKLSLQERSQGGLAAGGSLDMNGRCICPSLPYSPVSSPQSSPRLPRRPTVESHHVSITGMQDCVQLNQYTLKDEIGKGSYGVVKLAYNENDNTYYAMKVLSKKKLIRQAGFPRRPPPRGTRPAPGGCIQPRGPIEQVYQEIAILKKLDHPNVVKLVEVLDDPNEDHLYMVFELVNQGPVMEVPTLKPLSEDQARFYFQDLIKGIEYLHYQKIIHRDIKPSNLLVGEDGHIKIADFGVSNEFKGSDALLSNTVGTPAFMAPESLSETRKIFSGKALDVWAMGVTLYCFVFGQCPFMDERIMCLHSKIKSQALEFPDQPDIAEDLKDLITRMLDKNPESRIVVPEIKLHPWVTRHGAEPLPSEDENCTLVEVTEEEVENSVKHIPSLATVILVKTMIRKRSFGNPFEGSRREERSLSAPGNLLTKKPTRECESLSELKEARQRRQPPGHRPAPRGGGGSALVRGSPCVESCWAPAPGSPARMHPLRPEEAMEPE
# [4] = molecular target: RAF proto-oncogene serine/threonine-protein kinase (Homo sapiens) (UniProt P04049); experiment: Inhibition of c-RAF (unknown origin) at 0.2 uM incubated for 40 mins by radiometric kinase assay relative to control
# [5] = molecular target: Tyrosine-protein kinase CSK (Homo sapiens) (UniProt P41240); experiment: Inhibition of CSK (unknown origin) at 0.2 uM incubated for 40 mins by radiometric kinase assay relative to control
# Sequence of Tyrosine-protein kinase CSK (Homo sapiens) (P41240 2-450 limits assumed): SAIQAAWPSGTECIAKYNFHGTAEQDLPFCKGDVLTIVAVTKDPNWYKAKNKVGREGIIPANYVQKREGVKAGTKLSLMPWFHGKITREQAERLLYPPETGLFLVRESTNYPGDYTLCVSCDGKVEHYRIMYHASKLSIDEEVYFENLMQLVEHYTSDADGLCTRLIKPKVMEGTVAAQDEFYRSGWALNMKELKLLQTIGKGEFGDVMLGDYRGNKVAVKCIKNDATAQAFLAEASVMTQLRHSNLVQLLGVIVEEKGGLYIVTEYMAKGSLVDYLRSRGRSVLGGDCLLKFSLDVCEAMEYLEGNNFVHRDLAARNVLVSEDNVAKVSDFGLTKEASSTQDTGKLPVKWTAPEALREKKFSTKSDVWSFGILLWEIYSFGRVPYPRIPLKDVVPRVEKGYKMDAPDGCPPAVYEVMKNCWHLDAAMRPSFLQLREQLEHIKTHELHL
# [6] = molecular target: Death-associated protein kinase 1 (Homo sapiens) (UniProt P53355); experiment: Inhibition of DAPK1 (unknown origin) at 0.2 uM incubated for 40 mins by radiometric kinase assay relative to control
# Sequence of Death-associated protein kinase 1 (Homo sapiens) (P53355 whole entry, looked up): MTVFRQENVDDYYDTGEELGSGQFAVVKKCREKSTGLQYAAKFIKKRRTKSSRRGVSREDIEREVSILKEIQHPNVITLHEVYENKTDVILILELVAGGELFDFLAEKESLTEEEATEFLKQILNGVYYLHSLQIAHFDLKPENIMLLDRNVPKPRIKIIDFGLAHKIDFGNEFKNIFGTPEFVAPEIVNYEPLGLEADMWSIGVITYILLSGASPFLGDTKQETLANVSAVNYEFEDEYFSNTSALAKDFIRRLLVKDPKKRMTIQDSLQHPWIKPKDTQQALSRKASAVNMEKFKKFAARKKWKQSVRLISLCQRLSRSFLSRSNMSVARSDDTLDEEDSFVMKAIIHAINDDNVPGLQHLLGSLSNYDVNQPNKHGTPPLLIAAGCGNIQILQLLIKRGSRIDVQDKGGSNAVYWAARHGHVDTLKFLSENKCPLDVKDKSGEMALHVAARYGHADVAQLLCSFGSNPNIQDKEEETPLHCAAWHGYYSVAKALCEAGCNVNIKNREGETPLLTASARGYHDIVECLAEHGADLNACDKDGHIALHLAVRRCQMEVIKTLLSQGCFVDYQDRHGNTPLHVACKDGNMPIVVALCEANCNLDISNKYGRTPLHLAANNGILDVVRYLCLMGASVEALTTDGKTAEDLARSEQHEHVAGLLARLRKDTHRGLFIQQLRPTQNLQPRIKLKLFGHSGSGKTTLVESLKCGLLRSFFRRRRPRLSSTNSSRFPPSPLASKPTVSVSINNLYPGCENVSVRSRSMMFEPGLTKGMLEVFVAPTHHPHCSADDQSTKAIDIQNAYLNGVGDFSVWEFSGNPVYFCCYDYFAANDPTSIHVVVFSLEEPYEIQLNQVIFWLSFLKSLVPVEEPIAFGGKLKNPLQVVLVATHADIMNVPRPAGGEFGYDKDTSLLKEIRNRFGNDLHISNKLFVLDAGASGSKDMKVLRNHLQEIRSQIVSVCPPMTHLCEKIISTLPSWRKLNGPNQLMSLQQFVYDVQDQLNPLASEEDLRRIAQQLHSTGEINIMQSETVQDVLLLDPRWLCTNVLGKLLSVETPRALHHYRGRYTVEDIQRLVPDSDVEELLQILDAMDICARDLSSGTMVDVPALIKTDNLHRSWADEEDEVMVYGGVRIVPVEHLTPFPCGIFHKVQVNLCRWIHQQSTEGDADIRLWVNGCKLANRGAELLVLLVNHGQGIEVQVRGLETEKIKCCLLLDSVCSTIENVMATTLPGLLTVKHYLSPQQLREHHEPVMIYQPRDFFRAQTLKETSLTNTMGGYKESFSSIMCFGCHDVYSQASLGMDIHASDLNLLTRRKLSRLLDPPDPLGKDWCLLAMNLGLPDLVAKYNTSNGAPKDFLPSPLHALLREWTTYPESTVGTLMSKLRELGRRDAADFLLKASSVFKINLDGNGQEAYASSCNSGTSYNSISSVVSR
# [7] = molecular target: Tyrosine-protein kinase HCK (Homo sapiens) (UniProt P08631); experiment: Inhibition of HCK (unknown origin) at 0.2 uM incubated for 40 mins by radiometric kinase assay relative to control
# Sequence of Tyrosine-protein kinase HCK (Homo sapiens) (P08631 2-526 limits assumed): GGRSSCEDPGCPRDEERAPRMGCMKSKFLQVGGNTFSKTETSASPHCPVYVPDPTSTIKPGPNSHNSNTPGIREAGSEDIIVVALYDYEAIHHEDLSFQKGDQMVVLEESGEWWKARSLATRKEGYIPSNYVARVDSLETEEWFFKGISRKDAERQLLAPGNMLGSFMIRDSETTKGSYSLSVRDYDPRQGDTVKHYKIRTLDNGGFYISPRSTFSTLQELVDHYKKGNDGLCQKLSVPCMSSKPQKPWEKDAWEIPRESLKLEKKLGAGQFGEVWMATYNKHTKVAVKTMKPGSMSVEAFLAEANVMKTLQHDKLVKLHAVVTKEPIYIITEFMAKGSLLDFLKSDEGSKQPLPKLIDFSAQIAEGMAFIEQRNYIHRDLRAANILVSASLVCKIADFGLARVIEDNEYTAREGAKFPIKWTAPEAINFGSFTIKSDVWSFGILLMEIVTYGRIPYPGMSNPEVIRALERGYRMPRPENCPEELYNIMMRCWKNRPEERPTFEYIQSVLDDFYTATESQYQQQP
# [8] = molecular target: Histone deacetylase (Homo sapiens) (UniProt Q13547+O15379+Q9UBN7+Q92769+Q9UQL6+Q8WUI4+Q9BY41+Q96DB2+P56524+Q9UKV0+Q969S8); experiment: Inhibition of HDAC (unknown origin) at 0.2 uM incubated for 40 mins by radiometric kinase assay relative to control; assay type: protein assay
# [9] = molecular target: Inhibitor of nuclear factor kappa-B kinase subunit beta (Homo sapiens) (UniProt O14920); experiment: Inhibition of IKKbeta (unknown origin) at 0.2 uM incubated for 40 mins by radiometric kinase assay relative to control
# [10] = molecular target: MAP kinase-activated protein kinase 2 (Homo sapiens) (UniProt P49137); experiment: Inhibition of MAPKAP-K2 (unknown origin) at 0.2 uM incubated for 40 mins by radiometric kinase assay relative to control
# [11] = molecular target: Dual specificity mitogen-activated protein kinase kinase 6 (Homo sapiens) (UniProt P52564); experiment: Inhibition of MKK6 (unknown origin) at 0.2 uM incubated for 40 mins by radiometric kinase assay relative to control
# Sequence of Dual specificity mitogen-activated protein kinase kinase 6 (Homo sapiens) (P52564 whole entry): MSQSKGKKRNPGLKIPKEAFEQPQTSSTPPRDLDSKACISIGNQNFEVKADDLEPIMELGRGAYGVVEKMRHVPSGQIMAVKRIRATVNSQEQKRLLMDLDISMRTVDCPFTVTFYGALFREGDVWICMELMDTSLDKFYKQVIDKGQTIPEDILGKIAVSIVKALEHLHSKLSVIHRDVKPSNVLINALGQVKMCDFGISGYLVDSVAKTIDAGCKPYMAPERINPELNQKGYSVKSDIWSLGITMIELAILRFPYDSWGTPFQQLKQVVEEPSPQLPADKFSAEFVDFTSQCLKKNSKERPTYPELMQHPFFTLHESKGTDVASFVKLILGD
# [12] = molecular target: Serine/threonine-protein kinase PLK1 (Homo sapiens) (UniProt P53350); experiment: Inhibition of PLK1 (unknown origin) at 0.2 uM incubated for 40 mins by radiometric kinase assay relative to control
# [13] = molecular target: Tyrosine-protein kinase receptor TYRO3 (Homo sapiens) (UniProt Q06418); experiment: Inhibition of RSE (unknown origin) at 0.2 uM incubated for 40 mins by radiometric kinase assay relative to control
# Sequence of Tyrosine-protein kinase receptor TYRO3 (Homo sapiens) (Q06418 whole entry): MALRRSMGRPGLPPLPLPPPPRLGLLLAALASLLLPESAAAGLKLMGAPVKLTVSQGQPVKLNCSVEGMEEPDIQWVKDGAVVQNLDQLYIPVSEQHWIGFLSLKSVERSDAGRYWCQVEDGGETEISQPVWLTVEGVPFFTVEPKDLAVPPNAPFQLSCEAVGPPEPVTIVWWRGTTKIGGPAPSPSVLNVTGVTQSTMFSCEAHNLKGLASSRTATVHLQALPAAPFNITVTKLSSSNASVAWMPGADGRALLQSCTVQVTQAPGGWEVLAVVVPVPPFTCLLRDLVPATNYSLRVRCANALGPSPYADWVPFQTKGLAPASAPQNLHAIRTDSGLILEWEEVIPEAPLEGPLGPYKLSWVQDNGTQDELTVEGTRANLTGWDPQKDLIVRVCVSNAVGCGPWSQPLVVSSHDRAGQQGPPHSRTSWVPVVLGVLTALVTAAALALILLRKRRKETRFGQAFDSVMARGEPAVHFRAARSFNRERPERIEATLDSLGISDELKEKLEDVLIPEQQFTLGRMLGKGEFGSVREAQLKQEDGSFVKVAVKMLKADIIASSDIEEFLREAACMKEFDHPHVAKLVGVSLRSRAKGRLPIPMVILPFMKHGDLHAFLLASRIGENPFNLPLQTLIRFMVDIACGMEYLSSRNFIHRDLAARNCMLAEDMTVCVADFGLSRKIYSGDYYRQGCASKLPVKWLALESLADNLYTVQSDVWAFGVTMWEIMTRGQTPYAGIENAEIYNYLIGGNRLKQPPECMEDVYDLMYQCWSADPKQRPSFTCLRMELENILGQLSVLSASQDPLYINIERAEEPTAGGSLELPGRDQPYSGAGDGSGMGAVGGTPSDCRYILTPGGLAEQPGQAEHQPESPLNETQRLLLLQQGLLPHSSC
# [14] = molecular target: Mitogen-activated protein kinase 13 (Homo sapiens) (UniProt O15264); experiment: Inhibition of SAPK4 (unknown origin) at 0.2 uM incubated for 40 mins by radiometric kinase assay relative to control
# [15] = molecular target: Serine/threonine-protein kinase PLK2 (Homo sapiens) (UniProt Q9NYY3); experiment: Inhibition of SNK (unknown origin) at 0.2 uM incubated for 40 mins by radiometric kinase assay relative to control
# [16] = molecular target: Mitogen-activated protein kinase kinase kinase 7 (Homo sapiens) (UniProt O43318); experiment: Inhibition of TAK1 (unknown origin) at 0.2 uM incubated for 40 mins by radiometric kinase assay relative to control
# Sequence of Mitogen-activated protein kinase kinase kinase 7 (Homo sapiens) (O43318 whole entry): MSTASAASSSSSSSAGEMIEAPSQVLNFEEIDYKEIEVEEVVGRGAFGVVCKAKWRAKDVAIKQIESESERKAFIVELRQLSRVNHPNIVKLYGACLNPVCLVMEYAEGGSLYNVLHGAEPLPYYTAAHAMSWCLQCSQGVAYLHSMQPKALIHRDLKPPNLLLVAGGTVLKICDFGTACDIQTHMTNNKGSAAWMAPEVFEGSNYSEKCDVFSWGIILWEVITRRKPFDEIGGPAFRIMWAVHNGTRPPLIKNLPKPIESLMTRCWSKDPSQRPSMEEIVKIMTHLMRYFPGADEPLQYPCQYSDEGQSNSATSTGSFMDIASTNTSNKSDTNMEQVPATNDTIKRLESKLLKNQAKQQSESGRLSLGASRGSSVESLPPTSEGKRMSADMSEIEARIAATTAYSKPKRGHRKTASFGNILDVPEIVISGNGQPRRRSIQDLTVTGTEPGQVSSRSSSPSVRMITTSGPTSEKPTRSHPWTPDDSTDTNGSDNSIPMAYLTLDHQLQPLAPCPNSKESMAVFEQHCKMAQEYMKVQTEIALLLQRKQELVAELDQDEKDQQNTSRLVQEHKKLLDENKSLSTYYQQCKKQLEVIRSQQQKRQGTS
# [17] = tested on: MV4-11; experiment: Potency index, ratio of ibrutinib IC50 to test compound IC50 for antiproliferative activity against human MV4-11 cells; assay type: functional
# [18] = tested on: MV4-11; experiment: Potency index, ratio of sorafenib IC50 to test compound IC50 for antiproliferative activity against human MV4-11 cells; assay type: functional
# [19] = tested on: K562; experiment: Potency index, ratio of sorafenib IC50 to test compound IC50 for antiproliferative activity against human K562 cells; assay type: functional
# [20] = molecular target: Tyrosine-protein kinase BTK (Homo sapiens, UniProt Q06187); experiment: Inhibition of BTK phosphorylation in human JeKo-1 cells incubated for 72 hrs by Western blot analysis; assay type: cell-based; settings: dose 30-750 nM
# [21] = tested on: JeKo-1; experiment: Induction of apoptosis in human JeKo-1 cells assessed as viable cells at 30 nM incubated for 72 hrs by Annexin VFITC/PI staining based flow cytometry analysis (reference value: 94.81%); assay type: functional; settings: read-out: Activity
# [22] = tested on: JeKo-1; experiment: Induction of apoptosis in human JeKo-1 cells assessed as necrotic cells at 30 nM incubated for 72 hrs by Annexin VFITC/PI staining based flow cytometry analysis (reference value: 0.67%); assay type: functional
# [23] = tested on: JeKo-1; experiment: Induction of apoptosis in human JeKo-1 cells assessed as viable cells at 150 nM incubated for 72 hrs by Annexin VFITC/PI staining based flow cytometry analysis (reference value: 94.81%); assay type: functional; settings: read-out: Activity
# [24] = Acute toxicity in ICR mouse assessed as animal survival at 240 mg/kg, ip measured for 2 weeks; assay type: organism-based; settings: in vivo
# [25] = Acute toxicity in ip dosed ICR mouse assessed as lethal dose measured for 2 weeks; assay type: organism-based; settings: in vivo
# [26] = Acute toxicity in ip dosed ICR mouse assessed as effect on RBC level at 200 mg/kg, ip measured for 2 weeks; assay type: organism-based, Erythrocyte; settings: in vivo, 336 h
# [27] = tested on: JeKo-1; experiment: Antitumor activity against human JeKo-1 cells xenografted in ip dosed NOD/SCID mouse assessed as suppression of tumor growth measured for 16 days; assay type: functional, organism-based; settings: dose 25-50 mg/kg, time 16.0 day
# [28] = Toxicity in NOD/SCID mouse xenografted with human JeKo-1 cells assessed as abnormal activity at 25 to 50 mg/kg, ip measured for 16 days; assay type: organism-based; settings: in vivo, 384 h, dose 25-50 mg/kg, time 16 day
# [29] = tested on: JeKo-1; experiment: Antitumor activity against human JeKo-1 cells xenografted NOD/SCID mouse assessed as reduction in tumor weight at 25 mg/kg, ip measured for 16 days; assay type: functional; settings: time 16 day
# [30] = tested on: JeKo-1; experiment: Antitumor activity against human JeKo-1 cells xenografted NOD/SCID mouse assessed as reduction in tumor weight at 50 mg/kg, ip measured for 16 days; assay type: functional; settings: time 16 day
# [31] = tested on: MV4-11; experiment: Antitumor activity against human MV4-11 cells xenografted in ip dosed NOD/SCID mouse assessed as suppression of tumor growth administered once daily for 21 days; assay type: functional, organism-based; settings: dose 10-20 mg/kg, time 21.0 day
# [32] = tested on: MV4-11; experiment: Antitumor activity against human MV4-11 cells xenografted in NOD/SCID mouse assessed as tumor growth inhibition at 10 mg/kg ip administered once daily for 21 days; assay type: functional; settings: MV4-11, 504 h, time 21 day, read-out: TGI
# [33] = tested on: MV4-11; experiment: Antitumor activity against human MV4-11 cells xenografted NOD/SCID mouse assessed as reduction in tumor weight at 20 mg/kg, ip administered once daily for 21 days; assay type: functional; settings: time 21 day
# [34] = tested on: JeKo-1; experiment: cells; settings: Homo sapiens, JeKo-1, 72 h
# Description: Antiproliferative activity against human JeKo-1 cells assessed as inhibition of cell growth incubated for 72 hrs by CCK8 assay
# [35] = in vitro; settings: human, Caco-2
# Description: Apparent permeability across apical to basolateral side in human Caco-2 cells incubated for 120 mins by LC-MS/MS analysis
smiles,measurement,setting,value
CN1CCN(c2ccc(Nc3ncc(F)c(Nc4ccccc4C(=O)NN)n3)cc2)CC1,IC50,[1],12 nM
same,inhibition,[2],17%
same,inhibition,[3],27%
same,inhibition,[4],-10%
same,inhibition,[5],6%
same,inhibition,[6],-1%
same,inhibition,[7],27%
same,inhibition,[8],5%
same,inhibition,[9],15%
same,inhibition,[10],6%
same,inhibition,[11],10%
same,inhibition,[12],7%
same,inhibition,[13],24%
same,inhibition,[14],3%
same,inhibition,[15],43%
same,inhibition,[16],26%
same,Ratio IC50,[17],6
same,Ratio IC50,[18],1.3
same,Ratio IC50,[19],1.3
same,inhibition,[20],Dose-Dependent Effect
same,viability at 0.03 µM,[21],87.5%
same,Activity,[22],0.22%
same,viability at 0.15 µM,[23],72.4%
same,survival at 336 h,[24],100%
same,LD50 at 336 h,[25],343 mg/kg
same,Activity,[26],Toxic
same,Activity,[27],Dose-Dependent Effect
same,Activity,[28],Non-Toxic
same,Activity,[29],0.31 g
same,Activity,[30],0.18 g
same,Activity,[31],Dose-Dependent Effect
same,inhibition in vivo at 10 mg/kg,[32],74.2%
same,Activity,[33],0.08 g
same,IC50,[34],17 nM
same,Papp A→B at 2 h,[35],5.11 ×10⁻⁶ cm/s
